Consider 19 compounds from patent US20180118708A1, “CYCLIC COMPOUND” (Takeda Pharmaceutical Company Limited, priority 2015, published 2018).

One test relates to TNFα. Nature of the test: Effect with respect to blood TNF-α concentration elevation by LPS stimulation. The class given is in vivo. As to conditions: oral, female BALB/c mice, LPS 5 mg/kg i.p. one hour after compound, serum sampled one hour later, vs control group. From the text:
Effect With Respect to Blood TNF-α Concentration Elevation by LPS Stimulation
Various kinds of cytokines are produced in vivo accompanying inflammatory response and abnormal immunity or the like. Therefore, the action of test compound with respect to blood TNFa concentration rise was investigated using laboratory animals.
Female BALB/c mice (6 weeks old) were purchased, and, after preliminary rearing for about 1 week, the mice were divided into groups of four animals. […] Solvent was administered to control group in the same way. LPS (5 mg/kg) was administered intraperitoneally to the test group and the control group one hour after the administration of the test compound or solvent, and blood was sampled one hour later. The serum was separated from the obtained blood, and the TNFα concentration in the serum was measured using an assay kit made by R&D Systems Inc. The inhibition rates of the test group with respect to the control group are shown in Table 3.

Another test concerns the target T1, TLR4 (Mus musculus, UniProt Q9QUK6).
T1 construct: endogenous in cells; host or cells: RAW264.7 (murine macrophage cell line)
T1 sequence (Q9QUK6 26-835): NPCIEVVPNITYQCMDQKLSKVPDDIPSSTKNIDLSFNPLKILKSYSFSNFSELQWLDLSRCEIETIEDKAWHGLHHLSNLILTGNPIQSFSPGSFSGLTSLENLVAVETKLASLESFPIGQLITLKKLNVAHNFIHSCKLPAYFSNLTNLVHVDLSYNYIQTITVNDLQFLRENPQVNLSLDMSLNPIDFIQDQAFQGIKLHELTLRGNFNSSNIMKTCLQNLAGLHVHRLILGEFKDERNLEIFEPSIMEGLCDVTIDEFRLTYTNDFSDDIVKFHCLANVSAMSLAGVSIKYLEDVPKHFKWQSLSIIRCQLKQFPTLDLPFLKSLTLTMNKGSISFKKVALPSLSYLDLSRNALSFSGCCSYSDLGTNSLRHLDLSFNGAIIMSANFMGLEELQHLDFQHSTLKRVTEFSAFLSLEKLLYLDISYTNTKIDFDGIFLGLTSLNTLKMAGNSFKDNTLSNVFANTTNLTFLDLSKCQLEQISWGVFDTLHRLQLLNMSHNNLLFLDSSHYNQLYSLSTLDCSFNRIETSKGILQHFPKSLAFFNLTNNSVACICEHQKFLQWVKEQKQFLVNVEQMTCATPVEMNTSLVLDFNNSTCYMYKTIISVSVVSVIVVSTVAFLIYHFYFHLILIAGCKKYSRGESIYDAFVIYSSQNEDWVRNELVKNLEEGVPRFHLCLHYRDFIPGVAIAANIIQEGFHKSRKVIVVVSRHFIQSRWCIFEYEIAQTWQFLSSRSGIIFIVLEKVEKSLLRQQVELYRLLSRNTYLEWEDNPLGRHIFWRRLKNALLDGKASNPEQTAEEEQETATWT
T1 sequence (Q9JHF9 19-160 partner): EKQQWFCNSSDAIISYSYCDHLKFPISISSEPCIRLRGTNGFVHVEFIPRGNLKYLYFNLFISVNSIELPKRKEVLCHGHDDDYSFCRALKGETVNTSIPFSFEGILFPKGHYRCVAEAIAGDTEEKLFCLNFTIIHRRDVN
In words: Inhibitory effect with respect to NO production (LPS/interferon γ stimulated RAW264.7 cells). It is filed as cell-based, murine. As to conditions: test compound 100 nM, LPS 1.25 ng/mL + mouse interferon γ 0.2 ng/mL, nitrite ion in culture supernatant. As to the method:
Inhibitory Effect With Respect to NO Production
The inhibitory effect on TLR4 was determined using the inhibition rate due to the test compound with respect to NO production as a result of addition of lipopolysaccharide (LPS) using murine macrophage cell line RAW264.7. The cells were adjusted to 2×10^6 cells/mL using RPM1-1640 culture medium (phenol red free) supplemented with 10% inactivated bovine fetal serum, and were plated on 384 well plate so as to contain 6×10^4 cells/30 μL per well. Thereafter the cells were cultured at 37° C. overnight under 5% CO2/95% air. The test compound dissolved in DMSO was diluted 200 times using RPM1-1640 culture medium and adjusted so as to form a compound concentration of 500 nM. The prepared test compound 10 μL (final concentration 100 nM) was added to the cells, and LPS (Sigma) and mouse interferon γ (Wako Pure Chemicals) were added in amounts of 10 μL so as to form final concentrations of 1.25 ng/mL and 0.2 ng/mL respectively. The cells were further cultured overnight, and then the nitrite ion (stable NO metabolite) concentration in the culture supernatant was measured as an index of NO production. The nitrite ion concentration was assayed by adding 10 μL of 20 μg/mL 2,3-diamino naphthalene (DAN) dissolved in 0.2N HCl to 20 μL culture supernatant, incubating at room temperature for ten minutes, and then adding 10 μL of 0.5N NaOH, and measuring the fluorescent value at 460 nm (excitation wavelength 355 nm) using an EnVision plate reader (Perkin Elmer). The NO production inhibition rate (%) was calculated using the value without the addition of stimulating agent as control of 100% inhibition, and the value without the addition of the compound as control of 0% inhibition.

In the case of `CCOC(=O)C1=CC2(CCC1S(=O)(=O)Cc1cccc(Cl)c1)O[C@@H](CO)[C@H](CO)O2` (stereo partly drawn) [Compound 24, ethyl (2S,3S)-8-((3-chlorobenzyl)sulfonyl)-2,3-bis(hydroxymethyl)-1,4-dioxaspiro[4.5]dec-6-ene-7-carboxylate], the “Blood TNFα inhibition rate (% inhibition)” value in the test with TNFα (Dose 20 mg/kg) is listed as 91.5 % inhibition. Besides, at TLR4, the “NO production inhibitory effect at 100 nM (% inhibition)” value was 100 % inhibition.
The matching figures for `CCOC(=O)C1=CC2(CCC1S(=O)(=O)Cc1cccc(Cl)c1)O[C@H](CO)[C@@H](CO)O2` (stereo partly drawn) [Compound 3, ethyl (2R,3R)-8-((3-chlorobenzyl)sulfonyl)-2,3-bis(hydroxymethyl)-1,4-dioxaspiro[4.5]dec-6-ene-7-carboxylate]: 84.9 % inhibition and 100 % inhibition.
With `CCOC(=O)C1=CC2(CCC1S(=O)(=O)Cc1ccc(F)cc1Cl)O[C@H](C)[C@@H](C)O2` (stereo partly drawn) [Compound 18, ethyl (2R,3R)-8-((2-chloro-4-fluorobenzyl)sulfonyl)-2,3-dimethyl-1,4-dioxaspiro[4.5]dec-6-ene-7-carboxylate], the “NO production inhibitory effect at 100 nM (% inhibition)” value on TLR4 turned out to be 100 % inhibition.
In the case of `CCOC(=O)C1=CC2(CCC1S(=O)(=O)Cc1ccc(F)cc1Cl)OC[C@@H](CNC(=O)OC(C)(C)C)O2` (stereo partly drawn) [Compound 27, ethyl (2R)-2-(((tert-butoxycarbonyl)amino)methyl)-8-((2-chloro-4-fluorobenzyl)sulfonyl)-1,4-dioxaspiro[4.5]dec-6-ene-7-carboxylate], on TLR4, the “NO production inhibitory effect at 100 nM (% inhibition)” value was 98 % inhibition.
On the same count and under the same terms, then `CCOC(=O)C1=CC2(CC[C@H]1S(=O)(=O)Cc1ccccc1Cl)O[C@H](CO)[C@@H](CO)O2` [Compound 31, ethyl (2R,3R,8R)-8-((2-chlorobenzyl)sulfonyl)-2,3-bis(hydroxymethyl)-1,4-dioxaspiro[4.5]dec-6-ene-7-carboxylate], with 103 % inhibition.
On to `CCOC(=O)C1=CC2(CCC1S(=O)(=O)Cc1ccccc1Cl)O[C@@H](CO)[C@H](CO)O2` (stereo partly drawn) [Compound 23, ethyl (2S,3S)-8-((2-chlorobenzyl)sulfonyl)-2,3-bis(hydroxymethyl)-1,4-dioxaspiro[4.5]dec-6-ene-7-carboxylate], for which the “NO production inhibitory effect at 100 nM (% inhibition)” value on TLR4 stood at 100 % inhibition.
For `CCOC(=O)C1=CC2(CCC1S(=O)(=O)C(C)c1ccc(F)cc1Cl)O[C@H](CO)[C@@H](CO)O2` (single isomer, unassigned) [Compound 19], the “NO production inhibitory effect at 100 nM (% inhibition)” value on TLR4 (0.1 µM) was 110 % inhibition.
For `CCOC(=O)C1=CC2(CCC1S(=O)(=O)Cc1c(C)cccc1Cl)O[C@@H](CO)[C@H](CO)O2` (stereo partly drawn) [Compound 26, ethyl (2S,3S)-8-((2-chloro-6-methylbenzyl)sulfonyl)-2,3-bis(hydroxymethyl)-1,4-dioxaspiro[4.5]dec-6-ene-7-carboxylate], on TLR4, the “NO production inhibitory effect at 100 nM (% inhibition)” value is on record as 110 % inhibition.
Regarding `CCOC(=O)C1=CC2(CCC1S(=O)(=O)Cc1ccc(F)cc1Cl)O[C@@H](CO)[C@H](CO)O2` (single isomer, unassigned) [Compound 6], at TLR4 (0.1 µM), the “NO production inhibitory effect at 100 nM (% inhibition)” value was 92 % inhibition.
For the compound `CCOC(=O)C1=CC2(CCC1S(=O)(=O)Cc1ccc(F)cc1Cl)O[C@@H](CO)[C@H](CO)O2` (single isomer, unassigned) [Compound 7], the “Blood TNFα inhibition rate (% inhibition)” value in the test on TNFα (Dose 10 mg/kg) stood at 92.4 % inhibition. In addition, the “NO production inhibitory effect at 100 nM (% inhibition)” value on TLR4 (0.1 µM) was determined as 100 % inhibition.
In the case of `CCOC(=O)C1=CC2(CCC1S(=O)(=O)Cc1ccc(F)cc1Cl)OC[C@@H](CO)O2` (stereo partly drawn) [Compound 9, ethyl (2R)-8-((2-chloro-4-fluorobenzyl)sulfonyl)-2-(hydroxymethyl)-1,4-dioxaspiro[4.5]dec-6-ene-7-carboxylate], at TLR4 (0.1 µM), the “NO production inhibitory effect at 100 nM (% inhibition)” value was 110 % inhibition.
With `CCOC(=O)C1=CC2(CCC1S(=O)(=O)Cc1ccc(F)cc1Cl)O[C@H](COC(=O)CN)[C@@H](COC(=O)CN)O2` (stereo partly drawn) [Compound 16, ethyl (2R,3R)-2,3-bis((2-aminoacetoxy)methyl)-8-((2-chloro-4-fluorobenzyl)sulfonyl)-1,4-dioxaspiro[4.5]dec-6-ene-7-carboxylate], at TLR4, the “NO production inhibitory effect at 100 nM (% inhibition)” value is reported as 100 % inhibition.
On the same count and under the same terms, then `CCOC(=O)C1=CC2(CCC1S(=O)(=O)Cc1cc(F)ccc1Cl)O[C@H](CO)[C@@H](CO)O2` (stereo partly drawn) [Compound 21, ethyl (2R,3R)-8-((2-chloro-5-fluorobenzyl)sulfonyl)-2,3-bis(hydroxymethyl)-1,4-dioxaspiro[4.5]dec-6-ene-7-carboxylate], with 100 % inhibition.
As to `CCOC(=O)C1=CC2(CCC1S(=O)(=O)Cc1ccc(F)cc1Cl)O[C@@H](CO)[C@H](CO)O2` (stereo partly drawn) [Compound 1, ethyl (2S,3S)-8-((2-chloro-4-fluorobenzyl)sulfonyl)-2,3-bis(hydroxymethyl)-1,4-dioxaspiro[4.5]dec-6-ene-7-carboxylate], in the test on TNFα (Dose 20 mg/kg), the “Blood TNFα inhibition rate (% inhibition)” value is on record as 83.3 % inhibition. Moreover, at TLR4, the “NO production inhibitory effect at 100 nM (% inhibition)” value came to 107 % inhibition.
Take `CCOC(=O)C1=CC2(CC[C@H]1S(=O)(=O)Cc1ccccc1Cl)O[C@@H](CO)[C@H](CO)O2` [Compound 32, ethyl (2S,3S,8R)-8-((2-chlorobenzyl)sulfonyl)-2,3-bis(hydroxymethyl)-1,4-dioxaspiro[4.5]dec-6-ene-7-carboxylate]: the “NO production inhibitory effect at 100 nM (% inhibition)” value at TLR4 amounted to 114 % inhibition.
Still for that read-out and setting: next, `CCOC(=O)C1=CC2(CCC1S(=O)(=O)Cc1ccc(F)cc1Br)O[C@H](CO)[C@@H](CO)O2` (stereo partly drawn) [Compound 17, ethyl (2R,3R)-8-((2-bromo-4-fluorobenzyl)sulfonyl)-2,3-bis(hydroxymethyl)-1,4-dioxaspiro[4.5]dec-6-ene-7-carboxylate]: 100 % inhibition.
In the case of `CCOC(=O)C1=CC2(CCC1S(=O)(=O)Cc1ccc(F)cc1Cl)O[C@H](CO)[C@@H](CO)O2` (single isomer, unassigned) [Compound 14], the “Blood TNFα inhibition rate (% inhibition)” value with TNFα (Dose 10 mg/kg) is 82.8 % inhibition. Further, at TLR4 (0.1 µM), the “NO production inhibitory effect at 100 nM (% inhibition)” value stood at 100 % inhibition.
Consider `CCOC(=O)C1=CC2(CCC1S(=O)(=O)Cc1cccc(OC)c1)O[C@H](CO)[C@@H](CO)O2` (stereo partly drawn) [Compound 13, ethyl (2R,3R)-2,3-bis(hydroxymethyl)-8-((3-methoxybenzyl)sulfonyl)-1,4-dioxaspiro[4.5]dec-6-ene-7-carboxylate], for which the “NO production inhibitory effect at 100 nM (% inhibition)” value on TLR4 was 100 % inhibition.
Consider `CCOC(=O)C1=CC2(CCC1S(=O)(=O)C(C)c1ccc(F)cc1Cl)O[C@H](CO)[C@@H](CO)O2` (single isomer, unassigned) [Compound 20], for which the “NO production inhibitory effect at 100 nM (% inhibition)” value at TLR4 (0.1 µM) was determined as 77 % inhibition.
